From ChEMBL document CHEMBL4011609, “Discovery of novel BRD4 inhibitors by high-throughput screening, crystallography, and cell-based assays” (Bioorg Med Chem Lett, 2017)
The source made the active and inactive calls. The rule behind the calls is not given here.

What was measured:
[1] = target: SWI/SNF-related matrix-associated actin-dependent regulator of chromatin subfamily A member 2 (Homo sapiens) (UniProt P51531); test: Inhibition of SMARCA2 (unknown origin) at 100 uM using acetylated lysine as substrate relative to control
[2] = target: T1, Bromodomain-containing protein 4 (Homo sapiens, UniProt O60885); test: Binding affinity to human BRD4 BD1 (49 to 170 residues) expressed in Escherichia coli BL21(DE3) assessed as change in melting temperature by SYPRO Orange probe-based Real-Time PCR method
[3] = target: Nucleosome-remodeling factor subunit BPTF (Homo sapiens) (UniProt Q12830); test: Inhibition of FALZ (unknown origin) at 100 uM using acetylated lysine as substrate relative to control
MV4-11 [4] = test: Cell cycle arrest in human MV4-11 cells assessed as accumulation at G0/G1 phase at 27 uM after 24 hrs by propidium iodide/RNase staining based flow cytometry (reference value: 57.54%); type: functional
[5] = target: T2, Bromodomain-containing protein 9 (Homo sapiens) (UniProt Q9H8M2); test: Inhibition of BRD9 (unknown origin) at 50 uM using acetylated lysine as substrate relative to control
T2 sequence (whole entry): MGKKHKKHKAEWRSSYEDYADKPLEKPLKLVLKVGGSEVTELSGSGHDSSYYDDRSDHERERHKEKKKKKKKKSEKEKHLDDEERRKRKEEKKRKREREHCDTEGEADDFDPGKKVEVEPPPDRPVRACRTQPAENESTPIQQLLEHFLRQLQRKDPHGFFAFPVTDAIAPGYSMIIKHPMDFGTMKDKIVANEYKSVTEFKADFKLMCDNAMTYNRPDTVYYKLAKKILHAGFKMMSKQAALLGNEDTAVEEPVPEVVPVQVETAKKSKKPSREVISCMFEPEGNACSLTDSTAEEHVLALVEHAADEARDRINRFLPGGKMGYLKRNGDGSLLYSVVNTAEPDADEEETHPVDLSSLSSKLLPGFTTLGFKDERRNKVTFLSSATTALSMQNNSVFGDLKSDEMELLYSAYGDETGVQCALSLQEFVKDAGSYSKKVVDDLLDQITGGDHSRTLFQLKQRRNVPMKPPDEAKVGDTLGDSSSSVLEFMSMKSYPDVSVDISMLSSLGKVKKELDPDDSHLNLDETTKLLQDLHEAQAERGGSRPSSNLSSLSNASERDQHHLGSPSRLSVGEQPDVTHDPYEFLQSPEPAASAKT

[6] = target: T1, Bromodomain-containing protein 4; test: Inhibition of BRD4 BD1 in human MV4-11 cells assessed as reduction in c-Myc expression after 6 hrs by Western blot method; type: cell-based
[7] = target: T3, Bromodomain-containing protein 7 (Homo sapiens) (UniProt Q9NPI1); test: Inhibition of BRD7 (unknown origin) at 100 uM using acetylated lysine as substrate relative to control
T3 sequence (whole entry): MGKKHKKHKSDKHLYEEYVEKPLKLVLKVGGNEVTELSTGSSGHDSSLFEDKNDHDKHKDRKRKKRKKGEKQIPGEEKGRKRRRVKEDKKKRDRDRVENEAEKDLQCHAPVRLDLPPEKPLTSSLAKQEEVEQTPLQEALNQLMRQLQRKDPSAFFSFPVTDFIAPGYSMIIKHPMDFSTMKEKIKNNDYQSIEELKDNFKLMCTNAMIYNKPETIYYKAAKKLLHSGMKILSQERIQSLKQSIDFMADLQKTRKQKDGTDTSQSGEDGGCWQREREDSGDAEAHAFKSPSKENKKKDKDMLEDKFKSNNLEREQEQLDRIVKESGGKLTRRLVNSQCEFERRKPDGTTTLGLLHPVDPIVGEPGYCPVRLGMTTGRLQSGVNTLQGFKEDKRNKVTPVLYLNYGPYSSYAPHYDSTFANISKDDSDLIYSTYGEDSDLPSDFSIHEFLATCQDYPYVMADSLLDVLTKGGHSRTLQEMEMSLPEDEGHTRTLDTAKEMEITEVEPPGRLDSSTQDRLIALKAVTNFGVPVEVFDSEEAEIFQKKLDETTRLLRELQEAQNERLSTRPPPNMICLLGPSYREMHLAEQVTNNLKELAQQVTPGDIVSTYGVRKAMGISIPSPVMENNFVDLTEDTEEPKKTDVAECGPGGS

MV4-11 [8] = test: Induction of apoptosis in human MV4-11 cells assessed as necrotic cells at 27 uM after 72 hrs by Annexin V-FITC/propidium iodide staining based flow cytometry (reference value: 1.68 %); type: functional
MV4-11 [9] = test: Cell cycle arrest in human MV4-11 cells assessed as accumulation at S phase at 27 uM after 24 hrs by propidium iodide/RNase staining based flow cytometry (reference value: 31.98 %); type: functional
[10] = target: T1, Bromodomain-containing protein 4; test: Binding affinity to human BRD4 BD1 (49 to 170 residues) expressed in Escherichia coli BL21(DE3) assessed as change in melting temperature at 200 uM by SYPRO Orange probe-based Real-Time PCR method
[11] = target: T1, Bromodomain-containing protein 4; test: Binding affinity to human BRD4 BD1 (49 to 170 residues) expressed in Escherichia coli BL21(DE3) assessed as change in melting temperature at 50 uM by SYPRO Orange probe-based Real-Time PCR method
MV4-11 [12] = test: Cell cycle arrest in human MV4-11 cells assessed as accumulation at G2 phase at 27 uM after 24 hrs by propidium iodide/RNase staining based flow cytometry (reference value: 10.48 %); type: functional
[13] = target: T1, Bromodomain-containing protein 4; test: Inhibition of BRD4 BD1 in human MV4-11 cells assessed as reduction in CDK6 mRNA level at 10 to 30 uM after 6 hrs by Sybr green dye based qRT-PCR analysis; type: cell-based
[14] = target: SWI/SNF-related matrix-associated actin-dependent regulator of chromatin subfamily A member 2 (Homo sapiens) (UniProt P51531); test: Inhibition of SMARCA2 (unknown origin) at 50 uM using acetylated lysine as substrate relative to control
[15] = target: T1, Bromodomain-containing protein 4; test: Inhibition of BRD4 BD1 in human MV4-11 cells assessed as reduction in c-Myc mRNA level at 10 to 30 uM after 6 hrs by Sybr green dye based qRT-PCR analysis; type: cell-based
[16] = target: T3, Bromodomain-containing protein 7 (Homo sapiens); test: Inhibition of BRD7 (unknown origin) at 50 uM using acetylated lysine as substrate relative to control
MV4-11 [17] = test: Induction of apoptosis in human MV4-11 cells assessed as apoptotic cells at 27 uM after 72 hrs by Annexin V-FITC/propidium iodide staining based flow cytometry (reference value: 3.62 %); type: functional
[18] = target: T1, Bromodomain-containing protein 4; test: Binding affinity to human BRD4 BD1 (49 to 170 residues) expressed in Escherichia coli BL21(DE3) assessed as change in melting temperature at 100 uM by SYPRO Orange probe-based Real-Time PCR method
MV4-11 [19] = test: Induction of apoptosis in human MV4-11 cells assessed as live cells at 27 uM after 72 hrs by Annexin V-FITC/propidium iodide staining based flow cytometry (reference value: 92 %); type: functional
[20] = target: T1, Bromodomain-containing protein 4; test: Inhibition of BRD4 BD1 in human MV4-11 cells assessed as reduction in Bcl-2 mRNA level at 10 to 30 uM after 6 hrs by Sybr green dye based qRT-PCR analysis; type: cell-based
[21] = target: Nucleosome-remodeling factor subunit BPTF (Homo sapiens) (UniProt Q12830); test: Inhibition of FALZ (unknown origin) at 50 uM using acetylated lysine as substrate relative to control
MV4-11 [22] = test: Antiproliferative activity against human MV4-11 cells after 7 days by Alamar blue assay; details: MV4-11, 168 h
[23] = target: T1, Bromodomain-containing protein 4; test: Inhibition of human BRD4-BD1 (49 to 170 residues) expressed in Escherichia coli BL21(DE3) using N-C:SGRG-K(Ac)-GG-K(Ac)-GLG-K(Ac)-GGA-K(Ac)-RHRKVGG-K(biotin) as substrate preincubated for 15 mins followed by substrate addition measured after 5 mins by AlphaScreen assay
[24] = target: T2, Bromodomain-containing protein 9 (Homo sapiens); test: Inhibition of BRD9 (unknown origin) at 100 uM using acetylated lysine as substrate relative to control
MV4-11 [25] = test: Antiproliferative activity against human MV4-11 cells after 3 days by Alamar blue assay; details: MV4-11, 72 h

SWI/SNF-related matrix-associated actin-dependent regulator of chromatin subfamily A member 2 (Homo sapiens), sequence (P51531 whole entry, the tested form may be a part): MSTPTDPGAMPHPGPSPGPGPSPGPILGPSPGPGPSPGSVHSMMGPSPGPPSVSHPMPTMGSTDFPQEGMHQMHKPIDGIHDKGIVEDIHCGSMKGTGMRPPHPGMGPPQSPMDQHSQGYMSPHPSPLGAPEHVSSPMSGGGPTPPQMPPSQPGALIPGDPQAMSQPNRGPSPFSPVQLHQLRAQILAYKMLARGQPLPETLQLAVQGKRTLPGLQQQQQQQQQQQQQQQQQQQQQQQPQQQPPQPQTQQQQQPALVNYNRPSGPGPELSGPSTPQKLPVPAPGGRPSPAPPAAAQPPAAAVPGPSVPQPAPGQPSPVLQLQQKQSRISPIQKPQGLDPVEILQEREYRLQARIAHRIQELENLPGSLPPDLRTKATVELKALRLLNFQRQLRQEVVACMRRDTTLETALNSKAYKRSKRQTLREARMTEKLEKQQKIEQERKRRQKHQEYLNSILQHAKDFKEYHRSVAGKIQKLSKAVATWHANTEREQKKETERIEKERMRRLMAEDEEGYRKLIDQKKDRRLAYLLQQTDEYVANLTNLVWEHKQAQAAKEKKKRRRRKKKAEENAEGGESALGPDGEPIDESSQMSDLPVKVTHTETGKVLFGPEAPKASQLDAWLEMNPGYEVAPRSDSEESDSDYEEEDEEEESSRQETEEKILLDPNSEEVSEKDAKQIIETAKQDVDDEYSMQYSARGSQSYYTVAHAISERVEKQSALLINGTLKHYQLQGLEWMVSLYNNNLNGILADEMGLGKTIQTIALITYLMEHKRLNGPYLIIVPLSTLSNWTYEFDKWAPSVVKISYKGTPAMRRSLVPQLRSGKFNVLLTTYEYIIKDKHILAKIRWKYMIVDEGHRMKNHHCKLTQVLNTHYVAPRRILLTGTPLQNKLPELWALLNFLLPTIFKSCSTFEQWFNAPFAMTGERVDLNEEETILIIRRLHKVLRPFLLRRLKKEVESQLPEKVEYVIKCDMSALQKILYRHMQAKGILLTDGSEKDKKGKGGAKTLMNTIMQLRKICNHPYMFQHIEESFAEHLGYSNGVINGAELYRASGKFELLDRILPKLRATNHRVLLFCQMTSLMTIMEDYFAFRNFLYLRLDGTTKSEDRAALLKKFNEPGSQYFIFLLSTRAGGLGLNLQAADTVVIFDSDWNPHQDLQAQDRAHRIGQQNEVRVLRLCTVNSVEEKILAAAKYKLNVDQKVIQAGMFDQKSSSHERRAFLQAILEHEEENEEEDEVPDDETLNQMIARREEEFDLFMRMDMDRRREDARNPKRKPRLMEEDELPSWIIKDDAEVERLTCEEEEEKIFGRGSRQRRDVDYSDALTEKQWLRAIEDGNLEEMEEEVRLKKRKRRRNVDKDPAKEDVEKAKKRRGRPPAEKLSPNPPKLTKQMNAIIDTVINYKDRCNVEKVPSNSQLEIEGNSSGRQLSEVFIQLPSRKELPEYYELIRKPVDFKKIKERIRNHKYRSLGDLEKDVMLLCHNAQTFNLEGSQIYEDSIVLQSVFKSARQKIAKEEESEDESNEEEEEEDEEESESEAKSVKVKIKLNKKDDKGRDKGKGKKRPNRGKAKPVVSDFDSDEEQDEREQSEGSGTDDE

CN(CCCNc1cc(=O)oc2ccccc12)C(=O)c1cccs1
inhibition [1]: inactive
deltaTm [2]: Dose-dependent effect
inhibition [3]: inactive
Activity (MV4-11 [4]): 75.23%
inhibition [5]: inactive
inhibition [6]: Dose-dependent effect
inhibition [7]: 16%
Activity (MV4-11 [8]): 6.9%
Activity (MV4-11 [9]): 18.93%
ΔTm [10]: 7.07 °C
ΔTm [11]: 0.85 °C
Activity (MV4-11 [12]): 5.84%
inhibition [13]: Active
inhibition [14]: inactive
inhibition [15]: Active
inhibition [16]: 9%
Activity (MV4-11 [17]): 10.7%
ΔTm [18]: 3.06 °C
Activity (MV4-11 [19]): 76.2%
inhibition [20]: Active
inhibition [21]: inactive
IC50 (MV4-11 [22]): 10 µM
IC50 [23]: 0.81 µM
inhibition [24]: 12%
IC50 (MV4-11 [25]): 18.8 µM
